Measured values published in the supplement of paper PMC5908809.

Assays:
[1] = system: normal NK cells expanded with K562-aAPC; assay: percent inhibition of viability; higher = more inhibition; details: 72 h, IL-2 2.5 ng/mL
Description: (§1)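 Drug sensitivity and resistance testing on K562-aAPC-expanded normal NK cells: 5 concentrations (10-fold steps over a 10,000-fold range), 72 h at 37 °C, viability by CellTiter-Glo normalised to DMSO and benzethonium chloride controls; DSS from the fitted curve.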

DERL-7 (IL-2 2.5 ng/mL) [2] = assay: as above; details: 72 h
YT (IL-2 2.5 ng/mL) [3] = assay: as above; details: 72 h
IMC-1 (IL-2 20 ng/mL) [4] = assay: as above; details: 72 h
NKL (IL-2 2.5 ng/mL) [5] = assay: as above; details: 72 h
KAI3 (IL-2 2.5 ng/mL) [6] = assay: as above; details: 72 h
[7] = system: normal primary NK cells, pool 1 (3 donors), resting (IL-2 0 ng/mL); assay: as above; details: 72 h
[8] = system: normal primary NK cells, pool 1 (3 donors) (IL-2 2.5 ng/mL); assay: as above; details: 72 h
[9] = system: normal primary NK cells, pool 3 (3 donors) (IL-2 2.5 ng/mL); assay: as above; details: 72 h
SNK-6 (IL-2 2.5 ng/mL) [10] = assay: as above; details: 72 h
KHYG-1 (IL-2 2.5 ng/mL) [11] = assay: as above; details: 72 h
NK-92 (IL-2 2.5 ng/mL) [12] = assay: as above; details: 72 h
NK-YS (IL-2 2.5 ng/mL) [13] = assay: as above; details: 72 h
[14] = system: normal primary NK cells, pool 2 (3 donors) (IL-2 2.5 ng/mL); assay: as above; details: 72 h
[15] = system: normal NK cells expanded with K562-aAPC; assay: drug sensitivity score (DSS) (DSS units); higher = more sensitive; extreme values may be limits of the assay; details: 72 h; IL-2 2.5 ng/mL
Description: as §1

DERL-7 (IL-2 2.5 ng/mL) [16] = assay: as above; details: 72 h
YT (IL-2 2.5 ng/mL) [17] = assay: as above; details: 72 h
IMC-1 (IL-2 20 ng/mL) [18] = assay: as above; details: 72 h
NKL (IL-2 2.5 ng/mL) [19] = assay: as above; details: 72 h
KAI3 (IL-2 2.5 ng/mL) [20] = assay: as above; details: 72 h
[21] = system: normal primary NK cells, pool 1 (3 donors), resting (IL-2 0 ng/mL); assay: as above; details: 72 h
[22] = system: normal primary NK cells, pool 1 (3 donors) (IL-2 2.5 ng/mL); assay: as above; details: 72 h
[23] = system: normal primary NK cells, pool 3 (3 donors) (IL-2 2.5 ng/mL); assay: as above; details: 72 h
SNK-6 (IL-2 2.5 ng/mL) [24] = assay: as above; details: 72 h
KHYG-1 (IL-2 2.5 ng/mL) [25] = assay: as above; details: 72 h
NK-92 (IL-2 2.5 ng/mL) [26] = assay: as above; details: 72 h
NK-YS (IL-2 2.5 ng/mL) [27] = assay: as above; details: 72 h
[28] = system: normal primary NK cells, pool 2 (3 donors) (IL-2 2.5 ng/mL); assay: as above; details: 72 h

CN(c1ccccc1CNc1nc(Nc2ccc3c(c2)CC(=O)N3)ncc1C(F)(F)F)S(C)(=O)=O (max concentration tested 10000 nM)
percent inhibition of viability ([1]; 1 nM): -7.88% | percent inhibition of viability ([1]; 10 nM): -4.41% | percent inhibition of viability ([1]; 100 nM): -2.88% | percent inhibition of viability ([1]; 1000 nM): 58% | percent inhibition of viability ([1]; 10000 nM): 101% | percent inhibition of viability (DERL-7 (IL-2 2.5 ng/mL) [2]; 1 nM): -11.5% | percent inhibition of viability (DERL-7 (IL-2 2.5 ng/mL) [2]; 10 nM): 1.19% | percent inhibition of viability (DERL-7 (IL-2 2.5 ng/mL) [2]; 100 nM): -8.22% | percent inhibition of viability (DERL-7 (IL-2 2.5 ng/mL) [2]; 1000 nM): 78.2% | percent inhibition of viability (DERL-7 (IL-2 2.5 ng/mL) [2]; 10000 nM): 101% | percent inhibition of viability (YT (IL-2 2.5 ng/mL) [3]; 1 nM): 0.31% | percent inhibition of viability (YT (IL-2 2.5 ng/mL) [3]; 10 nM): -4.2% | percent inhibition of viability (YT (IL-2 2.5 ng/mL) [3]; 100 nM): -5.3% | percent inhibition of viability (YT (IL-2 2.5 ng/mL) [3]; 1000 nM): 27.2% | percent inhibition of viability (YT (IL-2 2.5 ng/mL) [3]; 10000 nM): 109% | percent inhibition of viability (IMC-1 (IL-2 20 ng/mL) [4]; 1 nM): -8.05% | percent inhibition of viability (IMC-1 (IL-2 20 ng/mL) [4]; 10 nM): -9.43% | percent inhibition of viability (IMC-1 (IL-2 20 ng/mL) [4]; 100 nM): -5.71% | percent inhibition of viability (IMC-1 (IL-2 20 ng/mL) [4]; 1000 nM): 42.5% | percent inhibition of viability (IMC-1 (IL-2 20 ng/mL) [4]; 10000 nM): 100% | percent inhibition of viability (NKL (IL-2 2.5 ng/mL) [5]; 1 nM): -5.61% | percent inhibition of viability (NKL (IL-2 2.5 ng/mL) [5]; 10 nM): -8.98% | percent inhibition of viability (NKL (IL-2 2.5 ng/mL) [5]; 100 nM): 4.68% | percent inhibition of viability (NKL (IL-2 2.5 ng/mL) [5]; 1000 nM): 65.6% | percent inhibition of viability (NKL (IL-2 2.5 ng/mL) [5]; 10000 nM): 109% | percent inhibition of viability (KAI3 (IL-2 2.5 ng/mL) [6]; 1 nM): 2.15% | percent inhibition of viability (KAI3 (IL-2 2.5 ng/mL) [6]; 10 nM): -4.73% | percent inhibition of viability (KAI3 (IL-2 2.5 ng/mL) [6]; 100 nM): -2.81% | percent inhibition of viability (KAI3 (IL-2 2.5 ng/mL) [6]; 1000 nM): 30.6% | percent inhibition of viability (KAI3 (IL-2 2.5 ng/mL) [6]; 10000 nM): 106% | percent inhibition of viability ([7]; 1 nM): -21.8% | percent inhibition of viability ([7]; 10 nM): -18.3% | percent inhibition of viability ([7]; 100 nM): -4.27% | percent inhibition of viability ([7]; 1000 nM): -35.7% | percent inhibition of viability ([7]; 10000 nM): 91.4% | percent inhibition of viability ([8]; 1 nM): 4.57% | percent inhibition of viability ([8]; 10 nM): -5.98% | percent inhibition of viability ([8]; 100 nM): 14.5% | percent inhibition of viability ([8]; 1000 nM): 42.7% | percent inhibition of viability ([8]; 10000 nM): 99.6% | percent inhibition of viability ([9]; 1 nM): -4.56% | percent inhibition of viability ([9]; 10 nM): -2.11% | percent inhibition of viability ([9]; 100 nM): -3.97% | percent inhibition of viability ([9]; 1000 nM): 15.6% | percent inhibition of viability ([9]; 10000 nM): 100% | percent inhibition of viability (SNK-6 (IL-2 2.5 ng/mL) [10]; 1 nM): -0.86% | percent inhibition of viability (SNK-6 (IL-2 2.5 ng/mL) [10]; 10 nM): -15.1% | percent inhibition of viability (SNK-6 (IL-2 2.5 ng/mL) [10]; 100 nM): -15.1% | percent inhibition of viability (SNK-6 (IL-2 2.5 ng/mL) [10]; 1000 nM): 15.3% | percent inhibition of viability (SNK-6 (IL-2 2.5 ng/mL) [10]; 10000 nM): 64.4% | percent inhibition of viability (KHYG-1 (IL-2 2.5 ng/mL) [11]; 1 nM): 3.44% | percent inhibition of viability (KHYG-1 (IL-2 2.5 ng/mL) [11]; 10 nM): -1.15% | percent inhibition of viability (KHYG-1 (IL-2 2.5 ng/mL) [11]; 100 nM): 1.69% | percent inhibition of viability (KHYG-1 (IL-2 2.5 ng/mL) [11]; 1000 nM): 81.4% | percent inhibition of viability (KHYG-1 (IL-2 2.5 ng/mL) [11]; 10000 nM): 109% | percent inhibition of viability (NK-92 (IL-2 2.5 ng/mL) [12]; 1 nM): -16.5% | percent inhibition of viability (NK-92 (IL-2 2.5 ng/mL) [12]; 10 nM): -24% | percent inhibition of viability (NK-92 (IL-2 2.5 ng/mL) [12]; 100 nM): -36% | percent inhibition of viability (NK-92 (IL-2 2.5 ng/mL) [12]; 1000 nM): 20.4% | percent inhibition of viability (NK-92 (IL-2 2.5 ng/mL) [12]; 10000 nM): 108% | percent inhibition of viability (NK-YS (IL-2 2.5 ng/mL) [13]; 1 nM): -1.08% | percent inhibition of viability (NK-YS (IL-2 2.5 ng/mL) [13]; 10 nM): -5.55% | percent inhibition of viability (NK-YS (IL-2 2.5 ng/mL) [13]; 100 nM): -3.8% | percent inhibition of viability (NK-YS (IL-2 2.5 ng/mL) [13]; 1000 nM): 48.1% | percent inhibition of viability (NK-YS (IL-2 2.5 ng/mL) [13]; 10000 nM): 106% | percent inhibition of viability ([14]; 1 nM): -24.5% | percent inhibition of viability ([14]; 10 nM): -16.5% | percent inhibition of viability ([14]; 100 nM): -8.34% | percent inhibition of viability ([14]; 1000 nM): 20.1% | percent inhibition of viability ([14]; 10000 nM): 98.1% | drug sensitivity score [15]: 12.4 | drug sensitivity score (DERL-7 (IL-2 2.5 ng/mL) [16]): 14.4 | drug sensitivity score (YT (IL-2 2.5 ng/mL) [17]): 9.64 | drug sensitivity score (IMC-1 (IL-2 20 ng/mL) [18]): 11.1 | drug sensitivity score (NKL (IL-2 2.5 ng/mL) [19]): 13.3 | drug sensitivity score (KAI3 (IL-2 2.5 ng/mL) [20]): 9.97 | drug sensitivity score [21]: 3.72 | drug sensitivity score [22]: 10.5 | drug sensitivity score [23]: 8.12 | drug sensitivity score (SNK-6 (IL-2 2.5 ng/mL) [24]): 5.93 | drug sensitivity score (KHYG-1 (IL-2 2.5 ng/mL) [25]): 14.9 | drug sensitivity score (NK-92 (IL-2 2.5 ng/mL) [26]): 8.85 | drug sensitivity score (NK-YS (IL-2 2.5 ng/mL) [27]): 11.6 | drug sensitivity score [28]: 8.64
